Measurements from PMC11374673, “Discovery of isoquinoline sulfonamides as allosteric gyrase inhibitors with activity against fluoroquinolone-resistant bacteria” (Nature Chemistry, 2024).
Values after ≈ are worked out from the molar mass of the structure shown. Values joined by “and” are separate entries in the source; they are usually repeats but may differ in a detail not shown here. Equal values may be shown once.

Legend:
[1] = test system: 60-resistant (60-r) isolates of E. coli W3110; test: microbe, parasite or virus in culture; assay type: cell-based, Escherichia coli; conditions: for MIC: Escherichia coli
Description: MIC was determined by broth microdilution. Single-colony cultures were grown to exponential phase (OD600 of 0.5) aerobically at 37 °C. In case of strains from the Keio collection, 50 µg ml^−1 kanamycin was supplemented to the media to ascertain a homogeneous population. The bacterial suspensions were diluted 100-fold in CAMHB and 50 µl was added to a twofold serial dilution series of test compounds (50 µl per well) in polypropylene 96-well microtitre plates to reach a volume of 100 µl. The plates were sealed with breathable membranes and incubated overnight at 37 °C with constant shaking (600 r.p.m.). The MIC was determined as the lowest concentration at which no visible bacterial growth was observed as compared with the inoculum controls from the median of a minimum of triplicates.
The plates were incubated at 37 °C and checked for growth after 24 and 48 h. […] Nine colonies with an increased MIC were selected for further analysis and stored as glycerol stocks.

[2] = test system: E. coli W3110; test: Checkerboard assay with PMBN;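 for checkerboard plate reading, Average values: OD600 read after 20 h incubation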
[3] = test system: HEK293T; test: Cytotoxicity assay (MTT); assay type: cell-based, human; conditions: for cytotoxicity: HEK293T and HepG2; for MTT data (raw readout): HEK293T; for IC50: 24 h, MTT
Outline: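 HEK293T cells, maintained at 37 °C and 7% CO2 in Dulbecco’s modified Eagle medium with GlutaMax, antibiotics and serum, were plated in clear 96-well plates in 100 µl medium containing 1% fetal bovine serum and left 24 h to attach. After 24 h compound exposure, MTT (0.40 mg ml^−1) was added for 2 h. Formazan was dissolved in 100 µl DMSO and absorbance measured at 570 nm. Background-corrected IC50 values came from variable-slope non-linear fits.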

[4] = 0.023 uM, experiment n = 1, technical triplicates
[5] = 0.023 uM, experiment n = 2, technical triplicates
[6] = 0.068 uM, experiment n = 1, technical triplicates
[7] = 0.068 uM, experiment n = 2, technical triplicates
[8] = 0.21 uM, experiment n = 1, technical triplicates
[9] = 0.21 uM, experiment n = 2, technical triplicates
[10] = 0.62 uM, experiment n = 1, technical triplicates
[11] = 0.62 uM, experiment n = 2, technical triplicates
[12] = 1.85 uM, experiment n = 1, technical triplicates
[13] = 1.85 uM, experiment n = 2, technical triplicates

For `O=C(O)c1cn(C2CC2)c2cc(N3CCNCC3)c(F)cc2c1=O` [CIP, ciprofloxacin], the MIC ([1]; E. coli W3110 60-r1) was 0.024 µM and 0.0078 µg/mL, the MIC ([1]; E. coli W3110 60-r3) was 0.024 µM and 0.0078 µg/mL and the MIC ([1]; E. coli W3110 60-r6) was 0.024 µM and 0.0078 µg/mL. For the same compound, the “checkerboard plate reading, Average values” (“checkerboard plate reading” below) ([2]; Ciprofloxacin 1.5625 nM + PMBN 1 µM) was 0.8906, the “checkerboard plate reading” value ([2]; Ciprofloxacin 1.5625 nM + PMBN 2 µM) was 0.8911 and the “checkerboard plate reading” value ([2]; Ciprofloxacin 1.5625 nM + PMBN 4 µM) was 0.726. The “checkerboard plate reading” value ([2]; Ciprofloxacin 1.5625 nM + PMBN 8 µM) was 0.6303, the “checkerboard plate reading” value ([2]; Ciprofloxacin 3.125 nM + PMBN 0 µM) was 0.9278 and the “checkerboard plate reading” value ([2]; Ciprofloxacin 3.125 nM + PMBN 0.5 µM) was 0.8723. The “checkerboard plate reading” value ([2]; Ciprofloxacin 3.125 nM + PMBN 1 µM) was 0.849, the “checkerboard plate reading” value ([2]; Ciprofloxacin 3.125 nM + PMBN 2 µM) was 0.8236 and the “checkerboard plate reading” value ([2]; Ciprofloxacin 3.125 nM + PMBN 4 µM) was 0.7354. For the same compound, the “checkerboard plate reading” value ([2]; Ciprofloxacin 3.125 nM + PMBN 8 µM) was 0.666, the “checkerboard plate reading” value ([2]; Ciprofloxacin 3.125 nM + PMBN 16 µM) was 0.8076 and the “checkerboard plate reading” value ([2]; Ciprofloxacin 3.125 nM + PMBN 32 µM) was 0.5963. The “checkerboard plate reading” value ([2]; Ciprofloxacin 6.25 nM + PMBN 0 µM) was 0.8608, the “checkerboard plate reading” value ([2]; Ciprofloxacin 6.25 nM + PMBN 0.5 µM) was 0.801 and the “checkerboard plate reading” value ([2]; Ciprofloxacin 6.25 nM + PMBN 1 µM) was 0.7994. The “checkerboard plate reading” value ([2]; Ciprofloxacin 6.25 nM + PMBN 2 µM) was 0.8003, the “checkerboard plate reading” value ([2]; Ciprofloxacin 6.25 nM + PMBN 4 µM) was 0.7289 and the “checkerboard plate reading” value ([2]; Ciprofloxacin 6.25 nM + PMBN 8 µM) was 0.6534. For the same compound, the “checkerboard plate reading” value ([2]; Ciprofloxacin 6.25 nM + PMBN 16 µM) was 0.5862, the “checkerboard plate reading” value ([2]; Ciprofloxacin 6.25 nM + PMBN 32 µM) was 0.4866 and the “checkerboard plate reading” value ([2]; Ciprofloxacin 12.5 nM + PMBN 0 µM) was 0.8404. The “checkerboard plate reading” value ([2]; Ciprofloxacin 12.5 nM + PMBN 0.5 µM) was 0.7355, the “checkerboard plate reading” value ([2]; Ciprofloxacin 12.5 nM + PMBN 1 µM) was 0.7301 and the “checkerboard plate reading” value ([2]; Ciprofloxacin 12.5 nM + PMBN 2 µM) was 0.723. The “checkerboard plate reading” value ([2]; Ciprofloxacin 12.5 nM + PMBN 4 µM) was 0.67, the “checkerboard plate reading” value ([2]; Ciprofloxacin 12.5 nM + PMBN 8 µM) was 0.5682 and the “checkerboard plate reading” value ([2]; Ciprofloxacin 12.5 nM + PMBN 16 µM) was 0.6754. The “checkerboard plate reading” value ([2]; Ciprofloxacin 12.5 nM + PMBN 32 µM) was 0.5017, the “checkerboard plate reading” value ([2]; Ciprofloxacin 25 nM + PMBN 0 µM) was 0.4892 and the “checkerboard plate reading” value ([2]; Ciprofloxacin 25 nM + PMBN 0.5 µM) was 0.5201. The “checkerboard plate reading” value ([2]; Ciprofloxacin 25 nM + PMBN 1 µM) was 0.4961, the “checkerboard plate reading” value ([2]; Ciprofloxacin 25 nM + PMBN 2 µM) was 0.4386 and the “checkerboard plate reading” value ([2]; Ciprofloxacin 25 nM + PMBN 4 µM) was 0.4173. The “checkerboard plate reading” value ([2]; Ciprofloxacin 25 nM + PMBN 8 µM) was 0.2541, the “checkerboard plate reading” value ([2]; Ciprofloxacin 25 nM + PMBN 16 µM) was 0.196 and the “checkerboard plate reading” value ([2]; Ciprofloxacin 25 nM + PMBN 32 µM) was 0.2103. The “checkerboard plate reading” value ([2]; Ciprofloxacin 50 nM + PMBN 0 µM) was 0.1991, the “checkerboard plate reading” value ([2]; Ciprofloxacin 50 nM + PMBN 0.5 µM) was 0.2079 and the “checkerboard plate reading” value ([2]; Ciprofloxacin 50 nM + PMBN 1 µM) was 0.2136. For the same compound, the “checkerboard plate reading” value ([2]; Ciprofloxacin 50 nM + PMBN 2 µM) was 0.1771, the “checkerboard plate reading” value ([2]; Ciprofloxacin 50 nM + PMBN 4 µM) was 0.1678 and the “checkerboard plate reading” value ([2]; Ciprofloxacin 50 nM + PMBN 8 µM) was 0.1671. For the same compound, the “checkerboard plate reading” value ([2]; Ciprofloxacin 50 nM + PMBN 16 µM) was 0.1685, the “checkerboard plate reading” value ([2]; Ciprofloxacin 50 nM + PMBN 32 µM) was 0.1738 and the MIC ([2]; Escherichia coli, W3110) was 0.05 µM. The “MIC E. coli + 8 μM PMBN” value ([2]; LPS disruption (pharmacological)) was 0.024 µM, the “synergy with PMBN” value ([2]; checkerboard) was “does not have an effect and none” and the MSC ([2]; checkerboard with PMBN, E. coli W3110) was 0.025 µM.

For `O=S(=O)(NC[C@@H]1CC[C@H](c2ccc(-c3ccc(F)cc3)cc2)N1)c1cccc2cnccc12` [Compound 101], the MIC ([1]; E. coli W3110 60-r1) was over 50 µM, the MIC ([1]; E. coli W3110 60-r3) was 6.25 µM (≈ 2.88 µg/mL) and the MIC ([1]; E. coli W3110 60-r6) was 3.1 µM (≈ 1.43 µg/mL). The “cytotoxicity” value [3] was “substantial cytotoxicity”, the “MTT data (raw readout)” value [3, 4] was 1.467 and 1.369 and 1.336 and the “MTT data (raw readout)” value [3, 5] was 0.913 and 0.978 and 0.995. For the same compound, the “MTT data (raw readout)” value [3, 6] was 1.354 and 1.258 and 1.005, the “MTT data (raw readout)” value [3, 7] was 1.026 and 1.021 and 0.846 and the “MTT data (raw readout)” value [3, 8] was 1.223 and 1.254 and 1.173. The “MTT data (raw readout)” value [3, 9] was 1.069 and 0.984 and 0.926, the “MTT data (raw readout)” value [3, 10] was 1.112 and 0.937 and 0.942 and the “MTT data (raw readout)” value [3, 11] was 0.770 and 0.738 and 0.688. For the same compound, the “MTT data (raw readout)” value [3, 12] was 0.725 and 0.641 and 0.684, the “MTT data (raw readout)” value [3, 13] was 0.521 and 0.485 and 0.507 and the “MTT data (raw readout)” value ([3]; 5.6 uM, experiment n = 1, technical triplicates) was 0.749 and 0.695 and 0.667. For the same compound, the “MTT data (raw readout)” value ([3]; 5.6 uM, experiment n = 2, technical triplicates) was 0.483 and 0.462 and 0.474, the “MTT data (raw readout)” value ([3]; 16.7 uM, experiment n = 1, technical triplicates) was 0.450 and 0.504 and 0.484 and the “MTT data (raw readout)” value ([3]; 16.7 uM, experiment n = 2, technical triplicates) was 0.372 and 0.345. For the same compound, the “MTT data (raw readout)” value ([3]; 50 uM, experiment n = 2, technical triplicates) was 0.011 and 0.012 and the IC50 ([3]; Homo sapiens, HEK-293T) was 3.2 µM.

`O=S(=O)(NCCNCc1ccc(-c2ccc(F)nc2)cc1)c1cccc2cnccc12` [Compound 60] showed an MIC ([1]; E. coli W3110 60-r1) of over 100 µM, an MIC ([1]; E. coli W3110 60-r3) of 100 µM (≈ 43.7 µg/mL) and an MIC ([1]; E. coli W3110 60-r6) of over 100 µM. For the same compound, the “increase in MIC in resistant colonies” value ([1]; all nine colonies) was “at least an eightfold increase in MIC”, the “cytotoxicity” value [3] was “lowest cytotoxicity” and the “MTT data (raw readout)” value [3, 4] was 0.733 and 0.692. The “MTT data (raw readout)” value [3, 5] was 0.767 and 0.777 and 0.816, the “MTT data (raw readout)” value [3, 6] was 0.746 and 0.796 and 0.737 and the “MTT data (raw readout)” value [3, 7] was 0.800 and 0.790 and 0.829. For the same compound, the “MTT data (raw readout)” value [3, 8] was 0.734 and 0.766 and 0.710, the “MTT data (raw readout)” value [3, 9] was 0.783 and 0.732 and 0.731 and the “MTT data (raw readout)” value [3, 10] was 0.735 and 0.740 and 0.733. For the same compound, the “MTT data (raw readout)” value [3, 11] was 0.809 and 0.824 and 0.770, the “MTT data (raw readout)” value [3, 12] was 0.725 and 0.718 and 0.739 and the “MTT data (raw readout)” value [3, 13] was 0.764 and 0.783 and 0.787. The IC50 ([3]; Homo sapiens, HEK-293T) was 51 µM and the IC50 [3] was over 50 µM.
